The source of these data is patent US20100119454A1, “Use of the conserved Drosophila NPFR1 system for uncovering interacting genes and pathways important in nociception and stress response” (priority 2008, published 2010).

For one experiment, the system named is Drosophila adult flies. In words: Two-choice preference test of adult flies (BITC). The format is in vivo, Drosophila melanogaster. The settings on record: 0.4 mM BITC, 2-day old control flies. Here is the method:
The two-choice preference test was based on a published procedure with some modifications (Al-Anzi et al., 2006), which is hereby incorporated by reference herein in its entirety. 2-day-old males withheld from food for 24 hr were presented with a 48-well plate containing two-colored food media in the alternating well rows. They contain 1% agar/10% fructose with 0.4 mM benzyl-isothiocyanate (BITC) in 75% ethanol or ethanol only. In each assay, 90-100 flies per line were tested in the dark. A preference index was defined as the fraction of […] choosing the BITC medium, minus the fraction of […] choosing the BITC-free medium. […] At least three trials were done for each line.

In experiment [1] the test system is D. melanogaster post-feeding larvae. The experiment is described as follows: Larval food aversion (migration) assay on soft agar media. The format is in vivo, Drosophila melanogaster. Here is the method: Behavioral Assays. The food aversion assay was performed in plastic petri dishes (60 mm in diameter). Each apple juice-agar plate contains a mix (ca. 7 ml) of 1 g of Drosophila agar powder (USB, Swampscott, Mass.) and 6 ml apple-juice solution (0.1 g carbohydrates per ml, equivalent to 20% of frozen concentrate). Other soft agar media were made by mixing 1 g agar powder with 6.5 ml of distilled water or solution containing 10% fructose, 10% lactose, 10% sorbitol or 50 μM capsaicin, respectively. The amount of agar powder may require adjustment depending on agar quality. Twenty-five new post-feeding larvae (96 h AEL) were transferred onto a plate. The larvae were allowed to move freely on the medium, and those that crawled onto the plastic surface became less mobile and eventually formed pupae there. The percent of pupae on agar media was scored after 24 hours. All experiments were performed at room temperature except for the temperature shift assay. In these experiments, larvae and food media were pre-incubated at 30° C. for 60 min before the assay. The larvae were subsequently transferred onto the medium and kept at 30° C. All assays were performed in the dark. At least three separate trials were performed per assay.
(§1) Behavioral assays. The migration assay on soft agar media was performed as described previously (Xu et al., 2008), which is hereby incorporated by reference herein in its entirety. Twenty-five postfeeding larvae (96 h AEL) in one plate were allowed to move freely on the medium, and those that crawled onto the plastic surface became less mobile, and eventually formed pupae there. The percentage of pupae on agar media was scored after 24 hours. The clumping assay was also described in the following, which is hereby incorporated by reference herein in its entirety (Wu et al., 2003). Briefly, 45 mm petri dishes containing solid fructose agar (3% agar in a 10% fructose solution) were coated with a thin layer of yeast paste (0.5 g yeast powder in 10% fructose solution). Thirty larvae per plate were allowed to browse for 30 min, and those in clumps were scored immediately. The social burrowing assay was performed on solid agar media containing apple juice or 10% fructose, as described (Wu et al., 2003). All assays, unless stated otherwise, were performed at room temperature in the dark. At least three separate trials were performed per assay.

Experiment [2] has the same test system. In words: Larval aggregation / cooperative burrowing on solid agar media. In kind it is in vivo, Drosophila melanogaster. Conditions: solid 10% fructose agar, post-feeding larvae 96 hr AEL. Here is the method: as §1
Experiment [3] concerns pain-expressing sensory neurons. The experiment is described as follows: Calcium imaging (yellow cameleon 2.1, SOARS analysis) of larval sensory neurons. The settings on record: lactose-fructose alternate. The format is cell-based, Drosophila melanogaster. Here is the method: Imaging. The live images of second instar larvae (ca. 48 h AEL) expressing DsRed driven by pain-gal4 were obtained using a Leica epifluorescence microscope. The immunofluorescence images were taken by a Zeiss LSM 510 Meta confocal microscope and processed by Zeiss AIM Image Examiner. […] Larvae were dissected in a modified HL6 solution containing lactose (HL6-Lac, 23.7 mM NaCl, 15 mM MgCl2, 24.8 mM KCl, 0.5 mM CaCl2, 10 mM NaHCO3, 5 mM HEPES, 240 mM lactose)^38. An incision was made along the dorsal midline, and the gut and the fat bodies were removed. The tissue was placed ventral side up in HL6 solution on a silicon-coated coverslip (Sylgard 184, DOW Corning Corp., Midland, Mich.) in a Dvorak-Stotler perfusion chamber (Lucas Highland, Chantilly, Va.). A minute amount of cyanoacrylate glue (Nexaband S/C, Abott Laboratories, North Chicago, Ill.) was applied to the edge of the cuticle using a glass micropipette to immobilize the tissue. The imaging was performed on a Zeiss LSM 510 Meta confocal microscope (Carl Zeiss Microimaging, Thornwood, N.Y.). YC2.1 was excited at 458 nm with an argon laser. Emission fluorescence was filtered by a BP 475-525 filter (cyan) and an LP 530 filter (yellow). 256×256 pixel images for ratiometric analysis were collected at 1 frame s^−1. The tissue was perfused at a rate of 8.3 ul s^−1 with HL6-Lac, periodically alternating with a modified HL6 solution containing fructose (HL6-Fru, with 240 mM fructose substituting 240 mM lactose in HL6-Lac), switching at 120-second intervals for a total of 800 seconds. The images were subsequently analyzed with the SOARS method (Statistical Optimization for the Analysis of Ratiometric Signals, Version 1.1) as described in the following references, which are hereby incorporated by reference herein in their entireties (Fan, X., et al., 2007; Broder, J., et al., 2007), using Matlab (MathWorks, Natick, Mass.; also see http://www.engr.uga.edu/research/groups/atslab/Software.html).
In brief, SOARS is a multivariate statistical optimization procedure performed on both CFP and YFP channels of the FRET imaging data. The analysis results in a set of eigenimages and associated time courses that represent the part of the imaged signal displaying statistically significant spatial correlation and temporal anti-correlation (e.g., the aspects of the signal that are demonstrable due to FRET). These eigenimages represent the spatial distribution of anti-correlated FRET changes in response to sugar stimulation. Because the stimulus was periodic, the time courses were tested for the presence of stimulus-locked activity. To quantify the significance of the periodic part of the FRET response, p-values for a periodic (sinusoidal) response at the stimulus frequency were calculated using multitaper harmonic analysis (a common method for the detection of sinusoids in noisy data) as described in the following references, which are hereby incorporated herein by reference in their entirety. (Thomson 1982; Mitra et al., 1999, Sornborger et al., 2003; Mitra et al., 2008).
In vivo calcium imaging. […] To quantify the significance of anti-correlated FRET response to fructose stimulation, p-values were calculated for a periodic (sinusoidal) response at the stimulus frequency using multitaper harmonic analysis, a common method for the detection of sinusoids in noisy data (Thomson, 1982), which is hereby incorporated by reference herein in its entirety.

The subject of the next experiment is rats. Conditions: injected into the forebrain of rats, paw-withdraw test; cited from earlier work.

With `S=C=NCc1ccccc1` [BITC, benzyl-isothiocyanate], in the experiment with Drosophila adult flies, the “food choice of adult flies” value was “mostly avoided”.
`O=C(CO)[C@@H](O)[C@H](O)[C@H](O)CO` [fructose]: in experiment [1] (10% sugar media, wild type larvae (FIG. 2B)), the “response of wild type larvae to sugar media” value is recorded as “aversive”. Further, the “larvae that moved away from the medium / pupated outside of the medium” value in experiment [1] (w1118 new post-feeding larvae (ca. 96 h AEL), soft agar paste, apple juice or 10% fructose) is recorded as “about 80%”. The “larval grouping behavior on solid medium” value in experiment [2] was “aggregation and cooperative burrowing”. The Anti-correlated signal entry in experiment [3] (pain^gal4/+, UAS-YC 2.1/+, 74 h AEL, ventral sensory neurons in T2 and T3 segments) is recorded as “No”; in experiment [3] (pain^gal4/+, UAS-YC 2.1/+, 96 h AEL, chordotonal neurons in A1 segment), “No”; in experiment [3] (pain^gal4/+, UAS-YC 2.1/+, 96 h AEL, ventral sensory neurons in T2 and T3 segments), “Yes”; in experiment [3] (pain^gal4/pain^3, UAS-YC 2.1/+ (pain mutant), 96 h AEL, ventral sensory neurons in T2 and T3), “No”.
For the compound “NPY: abundant signaling peptide in the brain of mammals”, in the experiment on rats, the nociceptive threshold entry is “significantly elevated”.
